Data taken from BindingDB's records for doi:10.1111/j.1471-4159.1985.tb08803.x (Lundbeck Ais, 1985).
Structures can show the parent of a compound that is named as a salt.

Columns and labels:
[1] = target: T1, Alpha-1A adrenergic receptor (Rattus norvegicus, UniProt P43140)
T1 sequence (P43140 whole entry): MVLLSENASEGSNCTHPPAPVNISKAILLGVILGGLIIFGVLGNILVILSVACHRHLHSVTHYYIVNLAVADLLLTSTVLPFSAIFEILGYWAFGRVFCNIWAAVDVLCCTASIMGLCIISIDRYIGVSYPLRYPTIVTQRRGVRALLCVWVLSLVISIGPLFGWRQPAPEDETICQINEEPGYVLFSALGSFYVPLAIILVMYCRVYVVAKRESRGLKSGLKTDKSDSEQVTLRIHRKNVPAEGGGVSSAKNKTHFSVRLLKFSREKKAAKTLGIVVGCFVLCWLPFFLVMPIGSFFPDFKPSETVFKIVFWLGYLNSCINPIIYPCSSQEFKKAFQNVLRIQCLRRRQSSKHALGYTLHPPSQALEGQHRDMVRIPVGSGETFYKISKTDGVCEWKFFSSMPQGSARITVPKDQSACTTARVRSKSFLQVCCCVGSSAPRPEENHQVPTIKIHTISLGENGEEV

[2] = target: T2, Muscarinic acetylcholine receptor M2 (Rattus norvegicus, UniProt P10980)
T2 sequence (P10980 whole entry): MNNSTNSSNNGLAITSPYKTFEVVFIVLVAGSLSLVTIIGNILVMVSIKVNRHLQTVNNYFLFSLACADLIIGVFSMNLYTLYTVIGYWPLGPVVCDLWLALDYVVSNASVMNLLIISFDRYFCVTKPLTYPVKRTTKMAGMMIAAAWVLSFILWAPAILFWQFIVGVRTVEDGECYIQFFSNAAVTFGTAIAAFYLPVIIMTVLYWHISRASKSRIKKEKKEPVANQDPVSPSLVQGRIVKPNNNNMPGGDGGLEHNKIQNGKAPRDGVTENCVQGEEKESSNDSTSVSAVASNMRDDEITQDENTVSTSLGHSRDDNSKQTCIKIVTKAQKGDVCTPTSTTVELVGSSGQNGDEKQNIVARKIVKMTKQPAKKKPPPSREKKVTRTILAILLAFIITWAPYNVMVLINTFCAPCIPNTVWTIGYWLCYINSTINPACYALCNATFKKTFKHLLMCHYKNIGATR

[3] = target: D(2) dopamine receptor (Rattus norvegicus, UniProt P61169)
[4] = target: 5-hydroxytryptamine receptor 2A (Rattus norvegicus, UniProt P14842)
[5] = target: Norepinephrine transporter (Rattus norvegicus, UniProt Q9JIA2)
[6] = target: Sodium-dependent serotonin transporter (Rattus norvegicus, UniProt P31652)
Sequence of Sodium-dependent serotonin transporter (P31652 whole entry): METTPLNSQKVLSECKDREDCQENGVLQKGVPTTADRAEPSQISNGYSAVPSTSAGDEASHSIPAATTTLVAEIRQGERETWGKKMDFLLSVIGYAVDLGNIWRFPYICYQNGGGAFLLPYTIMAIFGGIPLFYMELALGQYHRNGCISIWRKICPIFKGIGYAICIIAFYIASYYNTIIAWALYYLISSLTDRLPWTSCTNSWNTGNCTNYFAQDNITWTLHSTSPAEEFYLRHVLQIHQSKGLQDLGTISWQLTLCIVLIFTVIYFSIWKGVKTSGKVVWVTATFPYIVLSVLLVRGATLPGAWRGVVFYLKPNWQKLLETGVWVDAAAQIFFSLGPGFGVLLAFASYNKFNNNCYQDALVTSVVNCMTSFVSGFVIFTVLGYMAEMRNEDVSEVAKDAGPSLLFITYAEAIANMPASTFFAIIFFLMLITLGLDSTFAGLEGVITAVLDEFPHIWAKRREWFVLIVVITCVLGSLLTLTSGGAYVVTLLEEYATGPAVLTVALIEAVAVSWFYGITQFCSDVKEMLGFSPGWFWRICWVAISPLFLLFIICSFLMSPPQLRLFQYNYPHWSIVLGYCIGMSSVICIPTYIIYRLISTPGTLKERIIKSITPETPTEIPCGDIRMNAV

Sequence of D(2) dopamine receptor (P61169 whole entry): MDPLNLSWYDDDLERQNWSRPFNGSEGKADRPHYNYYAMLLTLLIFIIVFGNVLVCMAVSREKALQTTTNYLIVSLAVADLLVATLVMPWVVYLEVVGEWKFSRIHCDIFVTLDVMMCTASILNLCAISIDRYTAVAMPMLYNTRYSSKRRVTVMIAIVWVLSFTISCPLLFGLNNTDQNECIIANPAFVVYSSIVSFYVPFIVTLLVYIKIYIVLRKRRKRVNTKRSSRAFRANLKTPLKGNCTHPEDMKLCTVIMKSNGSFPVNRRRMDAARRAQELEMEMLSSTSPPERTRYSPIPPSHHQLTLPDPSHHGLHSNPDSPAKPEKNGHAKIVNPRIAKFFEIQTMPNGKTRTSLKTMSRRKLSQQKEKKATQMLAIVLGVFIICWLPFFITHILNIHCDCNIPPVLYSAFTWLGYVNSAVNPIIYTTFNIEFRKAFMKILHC
Sequence of 5-hydroxytryptamine receptor 2A (P14842 whole entry): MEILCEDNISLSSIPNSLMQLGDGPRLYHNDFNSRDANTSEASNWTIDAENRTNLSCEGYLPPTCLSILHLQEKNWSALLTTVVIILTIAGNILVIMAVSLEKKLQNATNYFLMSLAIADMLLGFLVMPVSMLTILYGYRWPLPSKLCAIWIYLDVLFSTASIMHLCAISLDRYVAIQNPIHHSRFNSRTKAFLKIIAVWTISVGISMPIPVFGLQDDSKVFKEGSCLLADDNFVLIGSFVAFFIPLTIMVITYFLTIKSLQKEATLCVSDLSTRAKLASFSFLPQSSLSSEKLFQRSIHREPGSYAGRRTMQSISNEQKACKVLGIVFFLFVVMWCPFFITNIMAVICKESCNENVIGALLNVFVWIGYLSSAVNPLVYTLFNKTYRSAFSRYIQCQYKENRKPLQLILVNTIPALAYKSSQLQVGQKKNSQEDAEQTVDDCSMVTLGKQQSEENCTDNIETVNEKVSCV

For `CN[C@H]1C[C@H](c2ccc(Cl)c(Cl)c2)c2ccccc21` [CAS_96850-13-4], which Ki [1] is on record?
The Ki was 740 nM.

And the Ki [2]?
The Ki was over 10000 nM.

What about the Ki [3] of the same compound?
Its Ki is over 10000 nM.

How did the Ki [4] turn out when `CNCCC(Oc1ccccc1OC)c1ccccc1` (stereo unspecified) [3-(2-methoxyphenoxy)-N-methyl-3-phenylpropan-1-amine] was run?
The Ki was 620 nM.

And the Ki [1]?
Its Ki is 4300 nM.

What about the Ki [2] of the same compound?
The Ki was 5000 nM.

What about the Ki [3] of the same compound?
The Ki was over 10000 nM.

With `COc1ccc2c(c1)CN(C)CC2c1ccc(Cl)c(Cl)c1` (stereo unspecified) as the compound, how does the Ki [5] read?
Its Ki is 2.3 nM.

And the Ki [4]?
Its Ki is 550 nM.

And the Ki [1]?
The Ki was 480 nM.

And the Ki [2]?
The Ki was 3700 nM.

What about the Ki [3] of the same compound?
Its Ki is over 10000 nM.

Which Ki [5] does the source give for `C(=C\c1ccccc1)/CN1CCN(CCOC(c2ccccc2)c2ccccc2)CC1` [CAS_67469-75-4] here?
Its Ki is 29 nM.

And the Ki [4]?
The Ki was 1000 nM.

What about the Ki [1] of the same compound?
Its Ki is 270 nM.

And the Ki [2]?
Its Ki is 900 nM.

And the Ki [3]?
Its Ki is 2500 nM.

And the Ki [6]?
The Ki was 1900 nM.

What does the source list for `CNCCCC1(c2ccccc2)SC(C)(C)c2ccccc21` (stereo unspecified) [Talsupram]?
Ki [5]: 0.79 nM; Ki [4]: 1600 nM; Ki [1]: > 10000 nM; Ki [2]: 1300 nM; Ki [3]: > 10000 nM; Ki [6]: 850 nM

Which Ki [5] does the source give for `CN(C)C[C@@H]1C2CCC(CC2)[C@@H]1c1ccc(Cl)c(Cl)c1` here?
Its Ki is 5.4 nM.

And the Ki [4]?
The Ki was over 10000 nM.

What about the Ki [1] of the same compound?
Its Ki is over 10000 nM.

And the Ki [2]?
The Ki was over 10000 nM.

What about the Ki [3] of the same compound?
Its Ki is 570 nM.

What about the Ki [6] of the same compound?
The Ki was 51 nM.

`CC(NC(C)(C)C)C(=O)c1cccc(Cl)c1` (stereo unspecified) [BUPROPION HYDROCHLORIDE] was tested. Which Ki [5] did it give?
The Ki was 1500 nM.

And the Ki [1]?
Its Ki is over 10000 nM.

And the Ki [2]?
Its Ki is over 10000 nM.

And the Ki [3]?
Its Ki is over 10000 nM.

With `CN(C)CCCC1(c2ccc(F)cc2)OCc2cc(C#N)ccc21` (stereo unspecified) [CITALOPRAM HYDROBROMIDE] as the compound, how does the Ki [1] read?
The Ki was 1600 nM.

And the Ki [2]?
The Ki was 4800 nM.

And the Ki [3]?
The Ki was over 10000 nM.

With `Fc1ccc(C(OCCN2CCN(C/C=C/c3ccccc3)CC2)c2ccc(F)cc2)cc1` as the compound, how does the Ki [5] read?
Its Ki is 13 nM.

What about the Ki [4] of the same compound?
Its Ki is 3400 nM.

And the Ki [1]?
Its Ki is 2200 nM.

What about the Ki [2] of the same compound?
The Ki was 2200 nM.

What about the Ki [3] of the same compound?
Its Ki is 810 nM.

With `CN1Cc2c(N)cccc2[C@H](c2ccccc2)C1` [(+/-)-2-Methyl-4-phenyl-1,2,3,4-tetrahydro-isoquinolin-8-ylamine] as the compound, how does the Ki [5] read?
The Ki was 6.6 nM.

And the Ki [1]?
The Ki was 1200 nM.

What about the Ki [2] of the same compound?
The Ki was over 10000 nM.

What about the Ki [3] of the same compound?
Its Ki is over 10000 nM.
